Test results as given in patent US11793779B2, “Hica for use in prophylaxis and/or treatment of a disease or condition involving degradation of cartilage and/or disruption of cartilage homeostasis and/or integrity” (Salarusta Oy, priority 2020, dated 2023).

Key:
Assay type in all cases: biochemical
[1] = target: T1, Human recombinant pure MMP-8 (Homo sapiens, UniProt P22894); experiment: MMP-8 mediated DEL-1 fragmentation (SDS-PAGE, silver stain); conditions: for inhibition of MMP-8 mediated DEL-1 fragmentation: Study A, 4 μl of 10% isomer, overnight at 37° C., FIG. 3A
T1 construct: purchased Proteaimmun 30100702
T1 sequence (P22894 101-467): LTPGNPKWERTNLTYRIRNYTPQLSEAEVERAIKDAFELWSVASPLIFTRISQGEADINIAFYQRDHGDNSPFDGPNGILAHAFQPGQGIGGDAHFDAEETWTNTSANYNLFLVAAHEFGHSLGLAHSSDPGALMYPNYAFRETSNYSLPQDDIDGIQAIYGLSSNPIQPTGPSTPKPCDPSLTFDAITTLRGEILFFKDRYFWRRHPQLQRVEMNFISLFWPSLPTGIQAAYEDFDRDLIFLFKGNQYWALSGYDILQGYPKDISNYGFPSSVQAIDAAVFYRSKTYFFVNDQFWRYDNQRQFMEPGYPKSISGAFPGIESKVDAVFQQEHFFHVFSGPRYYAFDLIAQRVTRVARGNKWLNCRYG
Experimental: The degradation of DEL-1 by MMP-8 was determined similarly as described (DeCarlo 1994, Sorsa, Salo et al. 1997). Human recombinant pure MMP-8 (#30100702, Proteaimmun) was preincubated 1 hour at 37° C. with p-aminophenylmercuric acetate (APMA) and different HICA isomers (D-HICA, #CAS 20312-37-2, Santa Cruz Biotechnology; L-HICA, #219827 Sigma-Aldrich). After which DEL-1 was added as a substrate. That was let incubate overnight at +37° C. Analyzed on […] SDS-PAGE with Silver Stain Pierce®. α-hydroxy-isovaleric acid (HMB). Ilomastat (Ilo). As assay buffer 50 mM Tris-HCl-buffer (TNC): pH 7.5; 0.2 M NaCl; 1.0 mM CaCl2 (Tervahartiala, Ingman et al. 1995). Fragmentation of DEL-1 induced by MMP-8 treated with 1 mM APMA was regarded as 100%. (Sorsa, Salo et al. 1997).
Study A: • 1. 1.7 μl DEL-1 (0.2 μg/μl) • 2. 1 μl MMP-8 (0.1 μg/μl)+5 μl 2 mM APMA+4 μl TNC • 3. 1.7 μl DEL-1 (0.2 μg/μl)+1 μl MMP-8 (0.1 μg/μl)+5 μl 2 mM APMA+4 μl TNC • 4.,5. 1.7 μl DEL-1 (0.2 μg/μl)+1 μl MMP-8 (0.1 μg/μl)+5 μl 2 mM APMA+10% 4 μl D-HICA • 6.,7. 1.7 μl DEL-1 (0.2 μg/μl)+1 μl MMP-8 (0.1 μg/μl)+5 μl 2 mM APMA+10% 4 μl L-HICA • 8.,9. 1.7 μl DEL-1 (0.2 μg/μl)+1 μl MMP-8 (0.1 μg/μl)+5 μl 2 mM APMA+10% 4 μl D-HMB • 10.,11. 1.7 μl DEL-1 (0.2 μg/μl)+1 μl MMP-8 (0.1 μg/μl)+5 μl 2 mM APMA+10% 4 μl L-HMB • 12.,13. 1.7 μl DEL-1 (0.2 μg/μl)+1 μl MMP-8 (0.1 μg/μl)+5 μl 2 mM APMA+4 μl Ilo
Study B: • 1. 1.7 μl DEL-1 (0.2 μg/μl) • 2. 1 μl MMP-8 (0.1 μg/μl)+5 μl 2 mM APMA+4 μl TNC • 3.,4. 1.7 μl DEL-1 (0.2 μg/μl)+1 μl MMP-8 (0.1 μg/μl)+5 μl 2 mM APMA+4 μl TNC • 6.,7. 1.7 μl DEL-1 (0.2 μg/μl)+1 μl MMP-8 (0.1 μg/μl)+7 μl 1.4 mM APMA+2 μl 10% D-HICA • 8.,9.,10. 1.7 μl DEL-1 (0.2 μg/μl)+1 μl MMP-8 (0.1 μg/μl)+5 μl 2 mM APMA+4 μl 10% D-HICA • 11.,12.,13. 1.7 μl DEL-1 (0.2 μg/μl)+1 μl MMP-8 (0.1 μg/μl)+1 μl 10 mM APMA+8 μl 10% D-HICA • 14. 1.7 μl DEL-1 (0.2 μg/μl)+1 μl MMP-8 (0.1 μg/μl)+5 μl 2 mM APMA+4 μl Ilo

[2] = target: T2, recombinant human ADAMTS-5 (Homo sapiens, UniProt Q9UNA0); experiment: ADAMTS-5 mediated break down of aggrecan (SDS-PAGE, silver stain); conditions: 10% racemic HICA, pH 7.4, incubation 2 d, FIG. 1 line 5
T2 construct: purchased Chemicon International Inc. CC1034
T2 sequence (Q9UNA0 262-930): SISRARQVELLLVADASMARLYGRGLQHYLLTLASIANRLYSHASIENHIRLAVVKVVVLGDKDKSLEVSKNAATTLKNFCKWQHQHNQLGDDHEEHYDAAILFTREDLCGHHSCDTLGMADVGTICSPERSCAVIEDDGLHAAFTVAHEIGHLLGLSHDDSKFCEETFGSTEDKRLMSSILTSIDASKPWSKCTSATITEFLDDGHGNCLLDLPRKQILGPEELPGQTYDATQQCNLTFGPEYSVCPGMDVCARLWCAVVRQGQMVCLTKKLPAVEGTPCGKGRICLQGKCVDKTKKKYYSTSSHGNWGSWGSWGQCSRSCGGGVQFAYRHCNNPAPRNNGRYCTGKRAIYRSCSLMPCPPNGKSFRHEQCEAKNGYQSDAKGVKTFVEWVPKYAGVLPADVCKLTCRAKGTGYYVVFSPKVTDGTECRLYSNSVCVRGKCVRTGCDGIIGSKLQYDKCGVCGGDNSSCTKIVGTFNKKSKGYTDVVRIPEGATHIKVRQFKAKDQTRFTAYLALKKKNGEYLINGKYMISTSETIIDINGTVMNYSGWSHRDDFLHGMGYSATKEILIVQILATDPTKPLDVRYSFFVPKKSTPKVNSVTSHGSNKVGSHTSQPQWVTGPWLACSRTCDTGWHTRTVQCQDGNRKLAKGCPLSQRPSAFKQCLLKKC
Experimental: (§1) As positive inhibitor controls Ilomastat (Ilo, CC1010, Millipore) and chlorhexidine (CHX, Corsodyl®, [2 mg/ml] (GlaxoSmithKline, Brøndby, Denmark) were used and 50 mM Tris-HCl-buffer (TNC): pH 7.5; 0.2 M NaCl; 1.0 mM CaCl2) was used as neutral assay buffer.
(§2) MMP-13 was preincubated 1 hour at 37° C. with p-aminophenylmercuric acetate (APMA, A9563, Sigma-Aldrich) to optimally activate (pro)MMP-13. As substrate, Aggrecan was added and then ADAMTS-5 or activated MMP-13 as catalytic/proteolytic enzyme and TNC, as neutral control, and 10% HICA, CHX or Ilo as protease/MMP-inhibitors let incubated together from 1 hour (h) to 2 days (d). The enzyme reactions terminated by boiling with modified Laemmli buffer. The samples were analysed by 8% SDS-PAGE and after electrophoresis the defragmentation of Aggrecan was visualised using Silver Stain Pierce®.
(§3) Sample with concentrations in lines: • 1. 0.25 μl molecular weight standards. Bio-Rad • 2. 4.2 μl Aggrecan (0.5 μg/μl) • 3. 4 μl ADAMTS-5 (0.1 μg/μl) • 4. 4.2 μl Aggrecan+4 μl ADAMTS-5+6 μl TNC-buffer. inc: 2d • 5. 4.2 μl Aggrecan+4 μl ADAMTS-5+6 μl 10% HICA. inc: 2d • 6. 4.2 μl Aggrecan+4 μl ADAMTS-5+6 μl CHX (2 mg/ml). inc: 2d • 7. 1 μl MMP-13 (0.2 μg/μl)+3 μl 2 mM APMA+6 μl TNC • 8. 4.2 μl Aggrecan+1 μl MMP-13 (0.2 μg/μl)+3 μl 2 mM APMA+6 μl TNC. inc: 1h • 9. 4.2 μl Aggrecan+1 μl MMP-13 (0.2 μg/μl)+3 μl 2 mM APMA+6 μl TNC. inc: 2d • 10. […]

[3] = target: T3, human Matrix metalloproteinase 13 (MMP-13) (Homo sapiens, UniProt P45452); experiment: MMP-13 mediated break down of aggrecan (SDS-PAGE, silver stain); conditions: 10% racemic HICA, APMA-activated MMP-13, incubation 2 d, FIG. 1 line 11
T3 construct: purchased BioTeZ, Berlin-Buch, Berlin, Germany 30100802
Experimental: as §1, §2, §3

Row | SMILES | inhibition of MMP-8 mediated DEL-1 fragmentation [1] | dose dependence of inhibition of MMP-8 mediated DEL-1 fragmentation ([1]; Study B, 2, 4 and 8 μl of 10% D-HICA, FIG. 3B) | inhibition of break down of Aggrecan by ADAMTS-5 [2] | inhibition of break down of Aggrecan by MMP-13 [3]
1 | CC(C)C[C@@H](O)C(=O)O [D-HICA] | able to prevent fragmentation of DEL-1 | inhibit MMP-8 dose-dependently |  | 
2 | CC(C)C[C@H](O)C(=O)O [L-HICA] | able to prevent fragmentation of DEL-1 |  |  | 
3 | [H]/N=C(\N/C(=N/[H])NCCCCCCNC(=N)NC(=N)Nc1ccc(Cl)cc1)Nc1ccc(Cl)cc1 [chlorhexidine, reference compound] |  |  | prevent enzyme activity | prevent enzyme activity
